Experimental data: patent publication US20260184663A1, “INDENE COMPOUNDS, PHARMACEUTICAL COMPOSITIONS THEREOF, AND THEIR THERAPEUTIC APPLICATIONS” (NucMito Pharmaceuticals co. Ltd., priority 2022, published 2026)
Read-outs that look alike come from different tables or passages of the source.

Tests used:
Type in all cases: cell-based
[1] = system: alpha-smooth muscle actin (α-SMA); experiment: Inhibition of TGF-β induced expression of alpha-smooth muscle actin (α-SMA) in CFSC cells (western blot); conditions: compound at 10 μM, TGF-β (10 ng/mL), 24 hours, band intensity vs TGF-β only
Procedure, shortened: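 CFSC hepatic stellate cells in serum-free DMEM treated 24 h at 37 °C with compound at 10 μM plus TGF-β (10 ng/mL). α-SMA measured by Western blot with β-actin, ECL detection, densitometry. Percent inhibition is decrease in band intensity versus TGF-β-only cells.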

[2] = system: MDA-MB-231 (breast cancer); experiment: Antiproliferative activity (CCK-8 cell viability), MDA-MB-231; conditions: Homo sapiens, 72 h, read-out: Antiproliferative activity in cancerous cells, MDA-MB-231 (inhibition of cell growth); for inhibition at 3.3 µM: Compound concentration: 3.3 μM; for inhibition at 10 µM: Compound concentration: 10 μM; for inhibition at 30 µM: Compound concentration: 30 μM
Procedure, shortened: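 Growth inhibition of human MDA-MB-231 breast cancer cells was assessed with a Cell Counting Kit-8. Cells cultured in DMEM plus 10% FBS were seeded at 2,000-5,000 cells/well, treated after attachment, and kept 72 h at 37° C. CCK-8 solution (10 μL) was added for 4 h, and absorbance at 450 nm was compared with DMSO-treated controls.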

HepG2 (liver cancer) = experiment: Antiproliferative activity (CCK-8 cell viability), HepG2; conditions: Homo sapiens, 72 h; for inhibition at 3.3 µM: Compound concentration: 3.3 μM; for inhibition at 10 µM: Compound concentration: 10 μM; for inhibition at 30 µM: Compound concentration: 30 μM
Procedure, shortened: (§1)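 Growth inhibition graded in bands from percent viability against DMSO vehicle, read as CCK-8 absorbance at 450 nm. Compound tested at 3.3, 10 or 30 μM for 72 h, 37 °C; media contained 10% FBS: DMEM for HepG2/SW480, MEM for HeLa, F-12K for A549.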

SW480 (colon cancer) = experiment: Antiproliferative activity (CCK-8 cell viability), SW480; conditions: Homo sapiens, 72 h; for inhibition at 3.3 µM: Compound concentration: 3.3 μM; for inhibition at 10 µM: Compound concentration: 10 μM; for inhibition at 30 µM: Compound concentration: 30 μM
Procedure, shortened: as §1

[3] = system: B16F10 (malignant melanoma); experiment: Antiproliferative activity (CCK-8 cell viability), B16F10; conditions: Mus musculus, 72 h, read-out: Antiproliferative activity in cancerous cells, B16F10 (inhibition of cell growth); for inhibition at 3.3 µM: B16-F10, Compound concentration: 3.3 μM; for inhibition at 10 µM: B16-F10, Compound concentration: 10 μM; for inhibition at 30 µM: B16-F10, Compound concentration: 30 μM
Procedure, shortened: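 Cell growth inhibition was measured in B16F10 malignant melanoma cells with a Cell Counting Kit-8 viability assay. Cells were maintained in DMEM plus 10% fetal bovine serum, seeded at 2,000-5,000 cells/well in 96-well plates, and treated for 72 h at 37° C. Viability was expressed relative to DMSO-treated vehicle control wells.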

[4] = system: A431 (epidermoid carcinoma); experiment: Antiproliferative activity (CCK-8 cell viability), A431; conditions: Homo sapiens, 72 h, read-out: Antiproliferative activity in cancerous cells, A431 (inhibition of cell growth); for inhibition at 3.3 µM: A-431, Compound concentration: 3.3 μM; for inhibition at 10 µM: A-431, Compound concentration: 10 μM; for inhibition at 30 µM: A-431, Compound concentration: 30 μM
Procedure, shortened: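 This growth inhibition assay used A431 cells maintained in Dulbecco's modified Eagle's medium plus 10% fetal bovine serum. Cells were seeded in 96-well plates, treated with compound for 72 h at 37° C., and then given 10 μL CCK-8 solution. After a further 4 h, absorbance was read at 450 nm.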

[5] = system: A549 (lung adenocarcinoma); experiment: Antiproliferative activity (CCK-8 cell viability), A549; conditions: Homo sapiens, 72 h, read-out: Antiproliferative activity in cancerous cells, A549 (inhibition of cell growth); for inhibition at 3.3 µM: Compound concentration: 3.3 μM; for inhibition at 10 µM: Compound concentration: 10 μM; for inhibition at 30 µM: Compound concentration: 30 μM
Procedure, shortened: as §1

HeLa (cervical cancer) = experiment: Antiproliferative activity (CCK-8 cell viability), HeLa; conditions: Homo sapiens, 72 h; for inhibition at 3.3 µM: Compound concentration: 3.3 μM; for inhibition at 10 µM: Compound concentration: 10 μM; for inhibition at 30 µM: Compound concentration: 30 μM
Procedure, shortened: as §1

[6] = read-out: Antiproliferative activity in cancerous cells, HepG2 (inhibition of cell growth)
[7] = read-out: Antiproliferative activity in cancerous cells, SW480 (inhibition of cell growth)
[8] = read-out: Antiproliferative activity in cancerous cells, SW480
[9] = read-out: Antiproliferative activity in cancerous cells, HELA (inhibition of cell growth)

Structure (SMILES)	inhibition at 10 µM [1]	inhibition at 3.3 µM [2]	inhibition at 10 µM [2]	inhibition at 3.3 µM (HepG2 (liver cancer); [6])	inhibition at 10 µM (HepG2 (liver cancer); [6])	inhibition at 3.3 µM (SW480 (colon cancer); [7])	inhibition at 10 µM (SW480 (colon cancer); [7])	inhibition at 3.3 µM [3]	inhibition at 10 µM [3]	inhibition at 3.3 µM [4]	inhibition at 10 µM [4]	inhibition at 3.3 µM [5]	inhibition at 10 µM [5]	inhibition at 3.3 µM (HeLa (cervical cancer); [9])	inhibition at 10 µM (HeLa (cervical cancer); [9])	also measured
CC1=C(CC(=O)O)c2c(F)cccc2/C1=C\c1cccc(COc2ccccc2)c1 [B13, (Z)-2-(4-Fluoro-2-methyl-1-(3-(phenoxymethyl)benzylidene)-1H-inden-3-yl)-acetic acid]	< 30%	≥ 50%	≥ 50%	< 30%	30 to 50%	< 30%	< 30%	30 to 50%	≥ 50%	< 30%	30 to 50%	30 to 50%	30 to 50%	30 to 50%	≥ 50%	inhibition at 30 µM (HepG2 (liver cancer); read-out: Antiproliferative activity in cancerous cells, HepG2): 30 to 50%; inhibition at 30 µM (SW480 (colon cancer); [8]): 30 to 50%
COc1ccc2c(c1)/C(=C\c1cccc(COc3ccccc3)c1)C(C)=C2CC(=O)O [B8, (Z)-2-(6-Methoxy-2-methyl-1-(3-(phenoxymethyl)benzylidene)-1H-inden-3-yl)-acetic acid]	> 80%	< 30%	30 to 50%	30 to 50%	30 to 50%	≥ 50%	≥ 50%	< 30%	≥ 50%	30 to 50%	≥ 50%	≥ 50%	≥ 50%	30 to 50%	≥ 50%	
CC1=C(CC(=O)O)c2cc(C)ccc2/C1=C\c1cccc(Oc2ccccc2)c1 [C17, (Z)-2-(2,5-Dimethyl-1-(3-phenoxybenzylidene)-1H-inden-3-yl)acetic acid]	> 80%	30 to 50%	≥ 50%	30 to 50%	≥ 50%	< 30%	< 30%	< 30%	< 30%	30 to 50%	≥ 50%	< 30%	≥ 50%	< 30%	30 to 50%	
CC1=C(CC(=O)O)c2cc(C)ccc2/C1=C\c1ccc(Oc2ccc(F)cc2)cc1 [C4, (Z)-2-(1-(4-(4-Fluorophenoxy)benzylidene)-2,5-dimethyl-1H-inden-3-yl)acetic acid]	> 80%	< 30%	30 to 50%	30 to 50%	≥ 50%	< 30%	< 30%	< 30%	< 30%	< 30%	30 to 50%	< 30%	30 to 50%	< 30%	≥ 50%	inhibition at 30 µM (SW480 (colon cancer); [8]): 30 to 50%
COc1ccc(Oc2ccc(/C=C3\C(C)=C(CC(=O)O)c4cc(F)ccc43)cn2)cc1 [E1, (E)-2-(5-Fluoro-1-((6-(4-methoxyphenoxy)pyridin-3-yl)methylene)-2-methyl-1H-inden-3-yl)acetic acid]	< 30%	< 30%	< 30%	< 30%	< 30%	< 30%	< 30%	< 30%	< 30%	< 30%	< 30%	< 30%	30 to 50%	< 30%	< 30%	inhibition at 30 µM [2]: ≥ 50%; inhibition at 30 µM (HepG2 (liver cancer); [6]): 30 to 50%; inhibition at 30 µM (SW480 (colon cancer); [7]): 30 to 50%; inhibition at 30 µM [3]: 30 to 50%; inhibition at 30 µM [4]: < 30%; inhibition at 30 µM [5]: 30 to 50%; inhibition at 30 µM (HeLa (cervical cancer); [9]): 30 to 50%
CC1=C(CC(=O)O)c2ccc(F)c(F)c2/C1=C/c1ccc(Oc2ccc(F)cc2)cc1 [E3, (E)-2-(6,7-Difluoro-1-(4-(4-fluorophenoxy)benzylidene)-2-methyl-1H-inden-3-yl)acetic acid]	> 80%	≥ 50%	≥ 50%	≥ 50%	≥ 50%	30 to 50%	≥ 50%	30 to 50%	≥ 50%	≥ 50%	≥ 50%	30 to 50%	≥ 50%	≥ 50%	≥ 50%	inhibition at 30 µM [2]: ≥ 50%; inhibition at 30 µM (HepG2 (liver cancer); [6]): ≥ 50%; inhibition at 30 µM (SW480 (colon cancer); [7]): ≥ 50%; inhibition at 30 µM [3]: ≥ 50%; inhibition at 30 µM [4]: ≥ 50%; inhibition at 30 µM [5]: ≥ 50%; inhibition at 30 µM (HeLa (cervical cancer); [9]): ≥ 50%
CC1=C(CC(=O)O)c2cc(F)ccc2/C1=C\c1ccc(COc2ccc(C(F)(F)F)cc2)cc1 [B2, (Z)-2-(5-Fluoro-2-methyl-1-(4-((4-(trifluoromethyl)phenoxy)methyl)-benzylidene)-1H-inden-3-yl)acetic acid]	> 80%	30 to 50%	≥ 50%	30 to 50%	≥ 50%	≥ 50%	≥ 50%	≥ 50%	≥ 50%	30 to 50%	≥ 50%	≥ 50%	≥ 50%	< 30%	< 30%	inhibition at 30 µM (HeLa (cervical cancer); read-out: Antiproliferative activity in cancerous cells, HELA): 30 to 50%
